This is an account of results in PubChem BioAssay AID298 (DTP/NCI, 2004).

Several values for one entry are separate records, joined by “and”; a condition that tells them apart may be missing. Identical values can stand only once. Records with an inconclusive call do not appear.

For the assay, the system named is MX-1 breast xenograft, intrarenal, nude mice, tumor weight. The assay can be described thus: NCI In Vivo Anticancer Drug Screen. Data for tumor model Human Mammary Carcinoma MX-1 Xenograft (intrarenal inoculation) in NU/NU BALB/C (nude) mice. The settings on record: endpoint: mean tumor weight change, higher = larger tumour. An outline of the steps: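 Antitumor activity is expressed as a T/C ratio. The treated group's tumor size or survival is compared against the vehicle-treated control group in mice bearing transplanted tumors.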
In general terms: A xenograft is tissue or cells of one species grown in another, often human tumour cells in immunodeficient mice.

Setting [1] is: dose: 50.0 mg/kg/injection, schedule: Q04DX003 (ip), vehicle: water.
Where [2] appears, read: dose: 100.0 mg/kg/injection, schedule: Q04DX003 (ip), vehicle: water.
Where [3] appears, read: dose: 300.0 mg/kg/injection, schedule: Q04DX003 (ip), vehicle: saline with Tween-80.
Setting [4] is: dose: 600.0 mg/kg/injection, schedule: Q04DX003 (ip), vehicle: saline with Tween-80.
[5] abbreviates: dose: 150.0 mg/kg/injection, schedule: Q04DX003 (ip), vehicle: Klucel (hydroxypropylcellulose) (HPC).
Setting [6] is: dose: 300.0 mg/kg/injection, schedule: Q04DX003 (ip), vehicle: Klucel (hydroxypropylcellulose) (HPC).
The mark [7] stands for this setting: dose: 600.0 mg/kg/injection, schedule: Q04DX003 (ip), vehicle: Klucel (hydroxypropylcellulose) (HPC).
Setting [8] is: dose: 150.0 mg/kg/injection, schedule: Q04DX003 (ip), vehicle: saline with Tween-80.

For `CC(=O)Nc1ccc(Nc2ccc(C(=C3C=CC(=[N+](C)CCC#N)C=C3)c3ccc(N(C)CCC#N)cc3)cc2)cc1`, the T/C reads like this: (dose: 12.5 mg/kg/injection, schedule: Q04DX003 (ip), vehicle: saline) 45 % of control; (dose: 25.0 mg/kg/injection, schedule: Q04DX003 (ip), vehicle: saline) 80 % of control; (dose: 50.0 mg/kg/injection, schedule: Q04DX003 (ip), vehicle: saline) 63 % of control; (dose: 100.0 mg/kg/injection, schedule: Q04DX003 (ip), vehicle: saline) 97 % of control; (dose: 100.0 mg/kg/injection, schedule: Q04DX003 (ip), vehicle: suspension in saline) 84 % of control; (dose: 200.0 mg/kg/injection, schedule: Q04DX003 (ip), vehicle: suspension in saline) 45 % of control.
As for `Cn1cc(NC(=O)c2cc(NC(=O)c3cc(NC=O)cn3C)cn2C)cc1C(=O)NCCC(=N)N`, the T/C under setting [1] is 82 % of control; the T/C under setting [2] is 83 % of control; the T/C (dose: 200.0 mg/kg/injection, schedule: Q04DX003 (ip), vehicle: water) is 51 % of control.
On to `Nc1nc(Br)nc2c1ncn2C1CC(O)C(CO)O1` (stereo not given), for which the T/C by setting is: (dose: 7.5 mg/kg/injection, schedule: Q03DX003 (ip), vehicle: saline) 109 % of control; (dose: 15.0 mg/kg/injection, schedule: Q03DX003 (ip), vehicle: saline) 88 % of control; (dose: 30.0 mg/kg/injection, schedule: Q03DX003 (ip), vehicle: saline) 43 % of control; (dose: 60.0 mg/kg/injection, schedule: Q03DX003 (ip), vehicle: saline) 59 % of control; (dose: 120.0 mg/kg/injection, schedule: Q03DX003 (ip), vehicle: saline) 65 % of control.
As for `C=C1C(O)C2(O)OCC34C(CC5C(C)=CC(=O)C(O)C5(C)C23)OC(=O)C(OC(=O)C/C=C/CCCCCCCC)C14` (stereo not given), the T/C (dose: 12.5 mg/kg/injection, schedule: Q04DX003 (ip), vehicle: saline + alcohol) was 38 % of control.
With `[Cl][Pt][Cl].[NH-]C(CO)C(=O)O` (stereo not given), the T/C was 92 % of control (dose: 12.5 mg/kg/injection, schedule: Q04DX003 (ip), vehicle: water); 100 % of control (dose: 25.0 mg/kg/injection, schedule: Q04DX003 (ip), vehicle: water); 57 % of control (dose: 37.5 mg/kg/injection, schedule: Q04DX003 (ip), vehicle: water); 100 % of control under setting [1]; 11 % of control (dose: 75.0 mg/kg/injection, schedule: Q04DX003 (ip), vehicle: water); 16 % of control under setting [2].
With `CCOC(=O)C(N)CSC(=O)NC` (stereo not given), the T/C reads like this: (dose: 112.5 mg/kg/injection, schedule: Q04DX003 (ip), vehicle: Klucel (hydroxypropylcellulose) (HPC)) 54 % of control; (dose: 125.0 mg/kg/injection, schedule: Q04DX003 (sc), vehicle: saline) 72 % of control; (dose: 225.0 mg/kg/injection, schedule: Q04DX003 (ip), vehicle: Klucel (hydroxypropylcellulose) (HPC)) 14 % of control; (dose: 225.0 mg/kg/injection, schedule: Q04DX003 (sc), vehicle: saline) 26 % of control; (dose: 450.0 mg/kg/injection, schedule: Q04DX003 (ip), vehicle: Klucel (hydroxypropylcellulose) (HPC)) 9 % of control; (dose: 450.0 mg/kg/injection, schedule: Q04DX003 (sc), vehicle: saline) 2 % of control. Also, the T/C (dose: 900.0 mg/kg/injection, schedule: Q04DX003 (sc), vehicle: saline) is -19 % of control.
In the case of `S=C(NCNC(=S)c1ccncc1)c1ccncc1`, the T/C runs as follows: under setting [3], 97 % of control; under setting [4], 40 % of control.
For the compound `CC(C)NC(=O)N(CCCCBr)N=O`, the T/C is, setting by setting: (dose: 150.0 mg/kg/injection, schedule: Q04DX003 (sc), vehicle: Klucel (hydroxypropylcellulose) (HPC)) -61 % of control; (dose: 300.0 mg/kg/injection, schedule: Q04DX003 (sc), vehicle: Klucel (hydroxypropylcellulose) (HPC)) -100 % of control.
Turning to `CCCC1(c2ccccc2)C(=O)NCNC1=O`, the T/C under setting [5] was 92 % of control; the T/C under setting [6] is 95 % of control; the T/C under setting [7] is 88 % of control; the T/C (dose: 1200.0 mg/kg/injection, schedule: Q04DX003 (ip), vehicle: Klucel (hydroxypropylcellulose) (HPC)) was 55 % of control.
For `Cc1ccc2c(c1)n([O-])c1cc(Cl)ccc1[n+]2=O`, the T/C was 84 % of control and 86 % of control under setting [8]; 56 % of control and 66 % of control under setting [3].
For `Oc1c(Cl)cc(Cl)cc1C=NCCSc1ccc(Cl)cc1`, the T/C reads like this: under setting [5], 99 % of control and 112 % of control; under setting [6], 95 % of control; under setting [7], 104 % of control and 107 % of control.
Regarding `CC(=O)NO`, the T/C reads like this: (dose: 150.0 mg/kg/injection, schedule: Q04DX003 (ip), vehicle: water) 78 % of control; (dose: 300.0 mg/kg/injection, schedule: Q04DX003 (ip), vehicle: water) 113 % of control; (dose: 600.0 mg/kg/injection, schedule: Q04DX003 (ip), vehicle: water) 79 % of control; (dose: 1200.0 mg/kg/injection, schedule: Q04DX003 (ip), vehicle: water) 74 % of control.
Turning to `CNC(=S)C#N`, the T/C (dose: 75.0 mg/kg/injection, schedule: Q04DX003 (ip), vehicle: saline + Tween-80 + alcohol) is 51 % of control.
Turning to `Cc1cc2c(C(C)C)c(O)c(O)c(C=NCCO)c2c(O)c1-c1c(C)cc2c(C(C)C)c(O)c(O)c(C=NCCO)c2c1O`, the T/C is 111 % of control (dose: 75.0 mg/kg/injection, schedule: Q04DX003 (ip), vehicle: saline with Tween-80); 86 % of control under setting [8]; 58 % of control under setting [3]; 97 % of control under setting [4]; 69 % of control (dose: 1200.0 mg/kg/injection, schedule: Q04DX003 (ip), vehicle: saline with Tween-80).
As for `O=S(=O)(O)O.[NH-]C1CCCCC1[NH-].[Pt+2]` (stereo not given), the T/C is, setting by setting: (dose: 0.63 mg/kg/injection, schedule: Q01DX010 (sc), vehicle: dextrose) 81 % of control; (dose: 1.25 mg/kg/injection, schedule: Q01DX010 (sc), vehicle: dextrose) 41 % of control; (dose: 2.5 mg/kg/injection, schedule: Q01DX010 (sc), vehicle: dextrose) 6 % of control.
Turning to `O=C(CN1CCOCC1)Nc1nc(-c2ccc(Cl)cc2)cs1`, the T/C is 96 % of control (dose: 150.0 mg/kg/injection, schedule: Q04DX003 (ip), vehicle: other); 71 % of control (dose: 600.0 mg/kg/injection, schedule: Q04DX003 (ip), vehicle: other); 60 % of control (dose: 1200.0 mg/kg/injection, schedule: Q04DX003 (ip), vehicle: other).
With `N=C(N)c1ccc(N=NNc2ccc(C(=N)N)cc2)cc1`, the T/C under setting [8] is 83 % of control.
On to `CC1=C(C(N)=O)C(c2ccccc2)NC(=S)N1` (stereo not given), for which, under setting [5], the T/C was 87 % of control.
In the case of `NC(=O)C1=CC2C3C=CC2(O)C(=O)OC3O1` (stereo not given), the T/C by setting is: (dose: 37.5 mg/kg/injection, schedule: Q04DX003 (ip), vehicle: Klucel (hydroxypropylcellulose) (HPC)) 54 % of control; (dose: 75.0 mg/kg/injection, schedule: Q04DX003 (ip), vehicle: Klucel (hydroxypropylcellulose) (HPC)) 42 % of control.
`[Cl][Pt+2][Cl].[NH-]C1CCC1.[NH2-]`: the T/C is -94 % of control (dose: 6.25 mg/kg/injection, schedule: Q04DX003 (sc), vehicle: saline) and -97 % of control (dose: 12.5 mg/kg/injection, schedule: Q04DX003 (sc), vehicle: saline).
For the compound `C=C(C)/C([O-])=N/[N+](C)(C)CC(O)CCCCCCCCCCCC` (stereo not given), the T/C was 76 % of control (dose: 5.0 mg/kg/injection, schedule: Q04DX003 (ip), vehicle: Klucel (hydroxypropylcellulose) (HPC)); 111 % of control (dose: 10.0 mg/kg/injection, schedule: Q04DX003 (ip), vehicle: Klucel (hydroxypropylcellulose) (HPC)); 90 % of control and 103 % of control (dose: 20.0 mg/kg/injection, schedule: Q04DX003 (ip), vehicle: Klucel (hydroxypropylcellulose) (HPC)); 78 % of control (dose: 40.0 mg/kg/injection, schedule: Q04DX003 (ip), vehicle: Klucel (hydroxypropylcellulose) (HPC)); 102 % of control and 118 % of control (dose: 80.0 mg/kg/injection, schedule: Q04DX003 (ip), vehicle: Klucel (hydroxypropylcellulose) (HPC)); 85 % of control (dose: 320.0 mg/kg/injection, schedule: Q04DX003 (ip), vehicle: Klucel (hydroxypropylcellulose) (HPC)).
Take `CCOC(=O)C1=C(C)O/C(=C/c2cccc(Cl)c2)C1=O`: the T/C under setting [8] was 62 % of control.
